Legend:
[1] = biological target: T1, GDP-loaded KRAS4b (amino acids 1-169) G12C/C118S (Homo sapiens, UniProt P01116, C118S/G12C); experiment: MALDI-TOF MS covalent Cys12 modification, GDP-loaded KRAS G12C; type: binding; conditions: 15 minutes reaction time, 1 μM protein, 1:2.5 protein to compound ratio
T1 construct: KRAS4b (amino acids 1-169) G12C/C118S protein; made in house
Outline: (§1)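 1 μM KRAS4b(1-169) G12C/C118S loaded with GTP, GppNHp or GDP in 20 mM HEPES, 150 mM NaCl, 1 mM MgCl2, pH 7.3, treated at a 1:2.5 protein:compound ratio in the dark at room temperature. Linear-mode MALDI-TOF; percent modification = adduct peak height over total protein peak heights, at 15 min.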

[2] = tested on: pERK in NCI-H358 cells; experiment: Cell-based pERK HTRF assay; conditions: Homo sapiens, 0.5 h, 30 min incubation
Outline: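 KRAS G12C NCI-H358 cells in RPMI/10% FBS treated 30 min with compound, 9-point 3-fold series from 75 μM final top, 0.25% DMSO. Lysates read for phospho-ERK by HTRF (d2/Eu cryptate antibodies, 615 nm emission) after 4–24 h room-temperature incubation.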

[3] = biological target: T2, GppNHp-loaded KRAS4b (amino acids 1-169) G12C/C118S (Homo sapiens, UniProt P01116, C118S/G12C); experiment: MALDI-TOF MS covalent Cys12 modification, GppNHp-loaded KRAS G12C; type: binding; conditions: 15 minutes reaction time, 1 μM protein, 1:2.5 protein to compound ratio
T2 construct: KRAS4b (amino acids 1-169) G12C/C118S protein; made in house
Outline: as §1

[4] = biological target: T3, Avi-KRAS G12C (1-169) GppNHp/RAF1 RBD-3×FLAG (52-151) (Homo sapiens, UniProt P01116, G12C); experiment: KRAS G12C-effector (RAF1 RBD) protein:protein interaction HTRF disruption assay; type: biochemical; conditions: PPI HTRF
T3 construct: Avi-KRAS G12C (1-169) GppNHp
Outline: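 50 nM Avi-KRAS G12C (1-169) loaded with GppNHp, then 75 nM RAF1 RBD-3×FLAG, then HTRF detection mix, each step 1 h at room temperature. Buffer was 50 mM Tris pH 7.5, 100 mM NaCl, 5 mM MgCl2, 0.1% BSA, 0.01% Tween 20, 10% DMSO. Compounds titrated 30-0.02 μM (3× series). Read at 615 nm emission, reported as % activity vs DMSO (100%).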

[5] = biological target: T4, GTP-loaded KRAS4b (amino acids 1-169) G12C/C118S (Homo sapiens, UniProt P01116, C118S/G12C); experiment: MALDI-TOF MS covalent Cys12 modification, GTP-loaded KRAS G12C; type: binding; conditions: 15 minutes reaction time, 1 μM protein, 1:2.5 protein to compound ratio
T4 construct: KRAS4b (amino acids 1-169) G12C/C118S protein; made in house
Outline: as §1

GDP-KRAS G12C percent of modification [1] | IC50 [2] [nM] | GppNHp-KRAS G12C percent of modification [3] | IC50 [4] [nM] | GTP-KRAS G12C percent of modification [5] | SMILES
A (percent of modification ≥70%) | 100 to 1000 | D (percent of modification <10%) | 500 to 5000 | D (percent of modification <10%) | C=CC(=O)N1CC[C@@H](N(CC)c2nc(OC[C@@]34CCCN3C[C@H](F)C4)nc3c(F)c(-c4ccc(F)c5sc(N)c(C#N)c45)ncc23)[C@@H]1CC [Compound 48]
A (percent of modification ≥70%) | 100 to 1000 | D (percent of modification <10%) | 500 to 5000 | D (percent of modification <10%) | C=CC(=O)N1CC[C@@H](N(CC)c2nc(OC[C@@]34CCCN3C[C@H](F)C4)nc3c(Cl)c(-c4ccc(F)c5sc(N)c(C#N)c45)ncc23)[C@@H]1CC [Compound 49]
A (percent of modification ≥70%) | ≤ 100 | A (percent of modification ≥70%) | ≤ 500 | C (10%≤percent of modification <50%) | C=CC(=O)N1CC[C@@H](N(CC)c2nc(OC[C@@]34CCCN3C[C@H](F)C4)nc3c(F)c(-c4ccc(F)c5sc(N)c(C#N)c45)ncc23)[C@@H]1C [Compound 50]
A (percent of modification ≥70%) | ≤ 100 | A (percent of modification ≥70%) | ≤ 500 | C (10%≤percent of modification <50%) | C=CC(=O)N1CC[C@@H](N(CC)c2nc(OC[C@@]34CCCN3C[C@H](F)C4)nc3c(Cl)c(-c4ccc(F)c5sc(N)c(C#N)c45)ncc23)[C@@H]1C [Compound 51]
A (percent of modification ≥70%) | ≤ 100 | A (percent of modification ≥70%) | ≤ 500 | B (50% percent of modification <70%) | C=CC(=O)N1CC[C@@H](N(C)c2nc(OC[C@@]34CCCN3C[C@H](F)C4)nc3c(F)c(-c4ccc(F)c5sc(N)c(C#N)c45)ncc23)[C@@H]1C [Compound 52]
A (percent of modification ≥70%) | ≤ 100 | A (percent of modification ≥70%) | ≤ 500 | B (50% percent of modification <70%) | C=CC(=O)N1CC[C@@H](N(C)c2nc(OC[C@@]34CCCN3C[C@H](F)C4)nc3c(Cl)c(-c4ccc(F)c5sc(N)c(C#N)c45)ncc23)[C@@H]1C [Compound 53]

Second part, the molecule before the results:

SMILES | GDP-KRAS G12C percent of modification [1] | IC50 [2] [nM] | GppNHp-KRAS G12C percent of modification [3] | IC50 [4] [nM] | GTP-KRAS G12C percent of modification [5]
C=CC(=O)N1CCC(N(CC)c2nc(OC[C@@]34CCCN3C[C@H](F)C4)nc3c(Cl)c(-c4ccc(F)c5sc(N)c(C#N)c45)ncc23)[C@H]1C (stereo partly shown) [Compound 37] | A (percent of modification ≥70%) | ≤ 100 | A (percent of modification ≥70%) | ≤ 500 | A (percent of modification ≥70%)
C=CC(=O)N1CCC(N(C)c2nc(OC[C@@]34CCCN3C[C@H](F)C4)nc3c(Cl)c(-c4ccc(F)c5sc(N)c(C#N)c45)ncc23)[C@H]1CC (stereo partly shown) [Compound 38] | A (percent of modification ≥70%) | ≤ 100 | A (percent of modification ≥70%) | ≤ 500 | A (percent of modification ≥70%)
C=CC(=O)N1CCC(N(C)c2nc(OC[C@@]34CCCN3C[C@H](F)C4)nc3c(F)c(-c4ccc(F)c5sc(N)c(C#N)c45)ncc23)[C@H]1CC (stereo partly shown) [Compound 39] | A (percent of modification ≥70%) | 100 to 1000 | A (percent of modification ≥70%) | ≤ 500 | A (percent of modification ≥70%)
C=CC(=O)N1CCC(N(CC)c2nc(OC[C@@]34CCCN3C[C@H](F)C4)nc3c(F)c(-c4ccc(F)c5sc(N)c(C#N)c45)ncc23)[C@H]1CC (stereo partly shown) [Compound 40] | A (percent of modification ≥70%) | 100 to 1000 | A (percent of modification ≥70%) | ≤ 500 | A (percent of modification ≥70%)
C=CC(=O)N1CCC(N(CC)c2nc(OC[C@@]34CCCN3C[C@H](F)C4)nc3c(Cl)c(-c4ccc(F)c5sc(N)c(C#N)c45)ncc23)[C@H]1CC (stereo partly shown) [Compound 41] | A (percent of modification ≥70%) | 100 to 1000 | A (percent of modification ≥70%) | ≤ 500 | A (percent of modification ≥70%)
C=CC(=O)N1CC[C@@H](N(C)c2nc(OC[C@@]34CCCN3C[C@H](F)C4)nc3c(F)c(-c4ccc(F)c5sc(N)c(C#N)c45)ncc23)[C@H]1CC [Compound 42] | A (percent of modification ≥70%) | 100 to 1000 | A (percent of modification ≥70%) | ≤ 500 | A (percent of modification ≥70%)
C=CC(=O)N1CC[C@@H](N(CC)c2nc(OC[C@@]34CCCN3C[C@H](F)C4)nc3c(Cl)c(-c4ccc(F)c5sc(N)c(C#N)c45)ncc23)[C@H]1CC [Compound 43] | A (percent of modification ≥70%) | 100 to 1000 | A (percent of modification ≥70%) | ≤ 500 | A (percent of modification ≥70%)
C=CC(=O)N1CC[C@@H](N(C)c2nc(OC[C@@]34CCCN3C[C@H](F)C4)nc3c(F)c(-c4ccc(F)c5sc(N)c(C#N)c45)ncc23)[C@@H]1CC [Compound 44] | A (percent of modification ≥70%) | 100 to 1000 | C (10%≤percent of modification <50%) | 500 to 5000 | D (percent of modification <10%)
C=CC(=O)N1CC[C@@H](N(C)c2nc(OC[C@@]34CCCN3C[C@H](F)C4)nc3c(Cl)c(-c4ccc(F)c5sc(N)c(C#N)c45)ncc23)[C@@H]1CC [Compound 45] | A (percent of modification ≥70%) | 100 to 1000 | C (10%≤percent of modification <50%) | 500 to 5000 | D (percent of modification <10%)
C=CC(=O)N1CC[C@@H](N(CC)c2nc(OC[C@@]34CCCN3C[C@H](F)C4)nc3c(F)c(-c4ccc(F)c5sc(N)c(C#N)c45)ncc23)[C@H]1CC [Compound 46] | A (percent of modification ≥70%) | 100 to 1000 | A (percent of modification ≥70%) | ≤ 500 | A (percent of modification ≥70%)
C=CC(=O)N1CC[C@@H](N(C)c2nc(OC[C@@]34CCCN3C[C@H](F)C4)nc3c(Cl)c(-c4ccc(F)c5sc(N)c(C#N)c45)ncc23)[C@H]1CC [Compound 47] | A (percent of modification ≥70%) | ≤ 100 | A (percent of modification ≥70%) | ≤ 500 | A (percent of modification ≥70%)
